Biological target: T1, human glutaminyl cyclase (hQC) (Homo sapiens, UniProt Q16769)
T1 construct: covering residues Ala33 to Leu361, was cloned into the pQE-80L expression vector; polyhistidine tag; made in house; host or cells: E. coli BL21 (DE3)
Assay: hQC inhibition assay (coupled spectrophotometric, H-Gln-Gln-OH substrate)
Assay type: biochemical
Settings: for inhibitory effect on hQC (in words): dose-response assay; for IC50: 0.1 μM hQC, 1 mM H-Gln-Gln-OH, 25 °C, pH 8.0, mean ± SD, three experiments, read-out: IC50 against hQC
Description: The coding sequence of human glutaminyl cyclase (hQC), covering residues Ala33 to Leu361, was cloned into the pQE-80L expression vector utilizing the restriction sites BamHI and HindIII. This recombinant plasmid was introduced into E. coli BL21 (DE3) cells through heat shock transformation. For protein expression, the transformed E. coli cells were grown in Luria-Bertani (LB) medium supplemented with 100 mg/L ampicillin at 37 °C. Once the optical density at 600 nm (OD600) reached 0.6, protein expression was induced using 0.1 mM isopropyl β-D-1-thiogalactopyranoside (IPTG), and the culture was incubated at 24 °C for 48 h, optimizing for soluble protein yield under reduced temperature conditions. After induction, the cells were harvested by centrifugation at 6,000 rpm for 20 min. The resulting cell pellet was resuspended in a lysis buffer containing 50 mM Tris-HCl (pH 8.5), 150 mM NaCl, and 20 mM imidazole. Cell disruption was performed using high-pressure homogenization via a microfluidizer (Microfluidics). The lysate was clarified through centrifugation, and the soluble protein fraction was purified using nickel-nitrilotriacetic acid (Ni-NTA) affinity chromatography, leveraging the polyhistidine tag for selective binding to the resin. The bound hQC protein was eluted and further purified using standard chromatographic techniques.
The inhibitory effects of various compounds on human glutaminyl cyclase (hQC) were assessed using a validated spectrophotometric assay. In this assay, glutamic dehydrogenase (EC 1.4.1.3; Sigma-Aldrich) was utilized as a coupling enzyme to indirectly quantify hQC activity, employing H-Gln-Gln-OH (Bachem) as the specific substrate. The reaction mixture consisted of 50 mM Tris-HCl (pH 8.0), 0.25 mM NADH, 30 U of glutamic dehydrogenase, 15 mM α-ketoglutaric acid, and 0.1 μM hQC. Inhibitors were introduced to the reaction mixture and allowed to incubate for 5 min at 25 °C to promote interaction with the enzyme. The enzymatic reaction was initiated by adding 1 mM of the substrate, and the progression was monitored by measuring the absorbance at 340 nm, corresponding to the oxidation of NADH. The IC50 values for the inhibitors were calculated by plotting initial reaction rates against the logarithmic concentrations of the inhibitors. Nonlinear regression fitting was conducted using GraphPad Prism 6 software, enabling accurate quantification of the inhibitors’ potencies and facilitating a detailed analysis of their inhibitory effects on hQC.
The enzymatic activity of recombinant hQC was measured using a coupled spectrophotometric assay with H-Gln-Gln-OH as substrate and glutamic dehydrogenase as a coupling enzyme. […] Initial reaction rates were monitored by measuring NADH oxidation at 340 nm, and IC50 values were calculated using nonlinear regression in GraphPad Prism 6. Data are presented as mean ± SD from three independent experiments. Lower IC50 values indicate stronger inhibition of hQC activity.

T1 sequence (Q16769 33-361): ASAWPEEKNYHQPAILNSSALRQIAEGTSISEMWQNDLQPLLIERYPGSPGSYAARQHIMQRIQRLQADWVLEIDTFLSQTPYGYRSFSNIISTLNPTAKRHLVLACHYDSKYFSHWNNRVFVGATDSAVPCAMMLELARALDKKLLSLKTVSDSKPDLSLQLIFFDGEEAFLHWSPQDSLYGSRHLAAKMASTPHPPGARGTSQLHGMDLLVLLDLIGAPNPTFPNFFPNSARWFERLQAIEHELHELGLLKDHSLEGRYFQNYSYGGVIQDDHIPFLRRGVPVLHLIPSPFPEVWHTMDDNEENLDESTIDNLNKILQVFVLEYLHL

| Compound | hQC activity suppression at 100 μM | inhibitory effect on hQC (in words) | IC50 [nM] |
| --- | --- | --- | --- |
| O=C(/C=C/c1ccccc1)OC[C@H]1O[C@@H](OC(=O)c2cc(O)c(O)c(O)c2)[C@H](O)[C@@H](O)[C@@H]1O [1-o-galloyl-6-o-cinnamoylglucose] | less than 50% | minimal to no significant inhibition |  |
| O=C(OCC1OC(OC(=O)c2cc(O)c(O)c(O)c2)C(O)C(OC(=O)c2cc(O)c(O)c(O)c2)C1O)c1cc(O)c(O)c(O)c1 (stereo not drawn) [GG3, 1,3,6-Trigalloylglucose] |  | only weak inhibitory effects | 4190 |
| O=C(OCC1OC(OC(=O)c2cc(O)c(O)c(O)c2)C(OC(=O)c2cc(O)c(O)c(O)c2)C(OC(=O)c2cc(O)c(O)c(O)c2)C1O)c1cc(O)c(O)c(O)c1 (stereo not drawn) [GG4, 1,2,3,6-Tetragalloylglucose] |  |  | 1430 |
| OCc1ccc(O[C@@H]2O[C@H](CO)[C@@H](O)[C@H](O)[C@H]2O)cc1 [Gastrodin] | less than 50% | only weak inhibitory effects |  |
| C[C@@]12C[C@@]3(O)O[C@@H](O1)[C@]1(COC(=O)c4ccccc4)[C@H]3C[C@@]12O[C@@H]1O[C@H](CO)[C@@H](O)[C@H](O)[C@H]1O [Paeoniflorin] | less than 50% | minimal to no significant inhibition |  |
